{"source": "patent US12559495B2", "about": "(Agency for Science, Technology and Research, priority 2013, dated 2026)", "assay_type_in_all_cases": "cell-based", "key": {"HEK293-STF3A cells": {"system": "HEK293-STF3A cells", "assay": "STF3A assay (luciferase reporter)", "conditions": "Homo sapiens, 24 h, 1 day of treatment", "procedure,_shortened": "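HEK293 cells stably carrying the STF luciferase reporter and expressing Wnt3A, seeded at 2×10^4 cells/well and grown overnight. Serially diluted compound (final 50 μM to 1.5 nM) applied for 1 day at 37 °C. Steady-Glo luciferase luminescence read after 10 min at room temperature.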"}, "p-LRP6 (Ser1490) [1]": {"system": "p-LRP6 (Ser1490)", "assay": "Phospho-LRP6 assay, time course, PA-1 teratocarcinoma cells", "method": "FIGS. 3A-3B show the time-course of p-LRP6 (Ser 1490) inhibition (in vitro) induced by porcupine inhibitors. FIG. 3A is a Western blot analysis of PA-1 teratocarcinoma cells treated with 2 μM of Compound 5, for the time points indicated with antibodies as indicated on the left. As a control, cells treated with either growth medium alone or the vehicle (DMSO) for 48 h were included. FIG. 3B is a densitometric analysis of pLRP6 relative to total LRP6.\nThe present target efficacy biomarker assay measures a decrease in levels of p-LRP6 (i.e. phosphorylated LRP-6) (Ser1490) upon treatment with a porcupine inhibitor (Compound 5). […] The inhibitory effect remains up to 72 h (data not shown) in the presence of the compound and up to 12 h after the compound has been removed (data not shown)."}, "p-LRP6 (Ser1490) [2]": {"system": "p-LRP6 (Ser1490)", "assay": "Phospho-LRP6 assay, dose titration, HPAF-II pancreatic adenocarcinoma cells", "method": "FIGS. 4A-4B show pLRP6 in vitro inhibition-dose titration. FIG. 4A is a Western blot analysis of HPAF-II pancreatic adenocarcinoma cells treated with the indicated doses of Compound 5 for 6 h with antibodies as indicated on the left. The […] controls are a cell lysate of untreated STF3A cells and cells treated with vehicle only (DMSO). FIG. 4B is a densitometric analysis of pLRP6 relative to total LRP6.\nWhile 2 μM led to 50-60% inhibition after 6 h of in vitro treatment, 3.3 nM of Compound 5 still inhibited p-LRP6 (Ser1490) by about 20% in this assay (FIG. 4)."}}, "data": [{"smiles": "Cn1c(=O)c2c(ncn2CC(=O)Nc2ccc(-c3ccccc3)nn2)n(C)c1=O", "note": "[Compound 5, 2-(1,3-dimethyl-2,6-dioxo-1,2,3,6-tetrahydro-7H-purin-7-yl)-N-(6-phenylpyridazin-3-yl)acetamide]", "values": [{"measurement": "IC50", "setting": "HEK293-STF3A cells", "result": "< 100", "unit": "nM"}, {"measurement": "reduction in p-LRP6", "setting": "p-LRP6 (Ser1490) [1]; 2 μM, from 4 h onwards, in vitro (FIG. 3)", "result": "greater than 50%"}, {"measurement": "duration of inhibitory effect after the compound has been removed", "setting": "p-LRP6 (Ser1490) [1]; data not shown", "result": "up to 12 h"}, {"measurement": "duration of inhibitory effect in the presence of the compound", "setting": "p-LRP6 (Ser1490) [1]; data not shown", "result": "up to 72 h"}, {"measurement": "inhibition at 0.0033 µM", "setting": "p-LRP6 (Ser1490) [2]; Homo sapiens, HPAF-II, 3.3 nM, 6 h (FIG. 4)", "result": "~20", "unit": "%"}, {"measurement": "inhibition at 2 µM", "setting": "p-LRP6 (Ser1490) [2]; Homo sapiens, HPAF-II, 2 μM, after 6 h of in vitro treatment (FIG. 4)", "result": "50 to 60", "unit": "%"}, {"measurement": "inhibition of p-LRP6", "setting": "p-LRP6 (Ser1490) [2]; concentrations lower than 3.3 nM, HPAF-II cells (data not shown)", "result": "did not inhibit"}]}, {"smiles": "C[C@H]1CN(C(=O)OC(C)(C)C)CCN1c1ccc(NC(=O)Cn2cnc3c2c(=O)n(C)c(=O)n3C)cc1", "note": "[Compound 15, (S)-tert-butyl 4-(4-(2-(1,3-dimethyl-2,6-dioxo-2,3-dihydro-1H-purin-7(6H)-yl)acetamido)phenyl)-3-methylpiperazine-1-carboxylate]", "values": [{"measurement": "IC50", "setting": "HEK293-STF3A cells", "result": "< 100", "unit": "nM"}]}, {"smiles": "Cn1c(=O)c2c(ncn2CC(=O)Nc2ccc(-c3ccccc3)cn2)n(C)c1=O", "note": "[Compound 19, 2-(1,3-dimethyl-2,6-dioxo-2,3-dihydro-1H-purin-7(6H)-yl)-N-(5-phenylpyridin-2-yl)acetamide]", "values": [{"measurement": "IC50", "setting": "HEK293-STF3A cells", "result": "< 100", "unit": "nM"}]}, {"smiles": "C[C@H](C(=O)Nc1ccc(-c2ccsc2)cc1)n1cnc2c1c(=O)n(C)c(=O)n2C", "note": "[Compound 58, (R)-2-(1,3-dimethyl-2,6-dioxo-2,3-dihydro-1H-purin-7(6H)-yl)-N-(4-(thiophen-3-yl)phenyl)propanamide]", "values": [{"measurement": "IC50", "setting": "HEK293-STF3A cells", "result": "> 10000", "unit": "nM"}]}, {"smiles": "C[C@@H](C(=O)Nc1ccc(-c2nccs2)cn1)n1cnc2c1c(=O)n(C)c(=O)n2C", "note": "[Compound 84, (S)-2-(1,3-dimethyl-2,6-dioxo-1,2,3,6-tetrahydro-7H-purin-7-yl)-N-(5-(thiazol-2-yl)pyridin-2-yl)propanamide]", "values": [{"measurement": "IC50", "setting": "HEK293-STF3A cells", "result": "< 100", "unit": "nM"}]}, {"smiles": "Cn1c(=O)c2c(ncn2CC(=O)Nc2ccc(N3CCN(Cc4ccccc4F)CC3)cn2)n(C)c1=O", "note": "[Compound 55, 2-(1,3-dimethyl-2,6-dioxo-2,3-dihydro-1H-purin-7(6H)-yl)-N-(5-(4-(2-fluorobenzyl)piperazin-1-yl)pyridin-2-yl)acetamide]", "values": [{"measurement": "IC50", "setting": "HEK293-STF3A cells", "result": "< 5000", "unit": "nM"}]}, {"smiles": "Cn1c(=O)c2c(ncn2CC(=O)Nc2ccc(N3CCN(Cc4ccc(F)cc4)CC3)cn2)n(C)c1=O", "note": "[Compound 56, 2-(1,3-dimethyl-2,6-dioxo-2,3-dihydro-1H-purin-7(6H)-yl)-N-(5-(4-(4-fluorobenzyl)piperazin-1-yl)pyridin-2-yl)acetamide]", "values": [{"measurement": "IC50", "setting": "HEK293-STF3A cells", "result": "< 1000", "unit": "nM"}]}, {"smiles": "Cc1nc(-c2ccc(NC(=O)[C@H](C)n3cnc4c3c(=O)n(C)c(=O)n4C)nc2)cs1", "note": "[Compound 86, (S)-2-(1,3-dimethyl-2,6-dioxo-2,3-dihydro-1H-purin-7(6H)-yl)-N-(5-(2-methylthiazol-4-yl)pyridin-2-yl)propanamide]", "values": [{"measurement": "IC50", "setting": "HEK293-STF3A cells", "result": "< 100", "unit": "nM"}]}, {"smiles": "Cn1c(=O)c2c(ncn2CC(=O)Nc2ccc(N3CCN(Cc4cc(F)cc(F)c4)CC3)cn2)n(C)c1=O", "note": "[Compound 54, N-(5-(4-(3,5-difluorobenzyl)piperazin-1-yl)pyridin-2-yl)-2-(1,3-dimethyl-2,6-dioxo-2,3-dihydro-1H-purin-7(6H)-yl)acetamide]", "values": [{"measurement": "IC50", "setting": "HEK293-STF3A cells", "result": "< 100", "unit": "nM"}]}, {"smiles": "C[C@@H](C(=O)Nc1ccc(-c2ccccc2)nn1)n1cnc2c1c(=O)n(C)c(=O)n2C", "note": "[Compound 79, (S)-2-(1,3-dimethyl-2,6-dioxo-2,3-dihydro-1H-purin-7(6H)-yl)-N-(6-phenylpyridazin-3-yl)propanamide]", "values": [{"measurement": "IC50", "setting": "HEK293-STF3A cells", "result": "< 100", "unit": "nM"}]}, {"smiles": "CC(=O)N1CCN(c2ccc(NC(=O)Cn3cnc4c3c(=O)n(C)c(=O)n4C)nc2)CC1", "note": "[Compound 48]", "values": [{"measurement": "IC50", "setting": "HEK293-STF3A cells", "result": "< 1000", "unit": "nM"}]}, {"smiles": "Cn1c(=O)c2c(ncn2CC(=O)Nc2ccc(-c3ccccn3)cc2)n(C)c1=O", "note": "[Compound 25, 2-(1,3-dimethyl-2,6-dioxo-2,3-dihydro-1H-purin-7(6H)-yl)-N-(4-(pyridin-2-yl)phenyl)acetamide]", "values": [{"measurement": "IC50", "setting": "HEK293-STF3A cells", "result": "< 100", "unit": "nM"}]}, {"smiles": "O=C(Cn1cnc2[nH]c(=O)[nH]c(=O)c21)Nc1ccc(-c2ccsc2)cc1", "note": "[Compound 71, 2-(2,6-dioxo-2,3-dihydro-1H-purin-7(6H)-yl)-N-(4-(thiophen-3-yl)phenyl) acetamide]", "values": [{"measurement": "IC50", "setting": "HEK293-STF3A cells", "result": "> 10000", "unit": "nM"}]}, {"smiles": "Cn1c(=O)c2c(ncn2CC(=O)Nc2ccc(N3CCN(Cc4ccccc4)CC3)cn2)n(C)c1=O", "note": "[Compound 53, N-(5-(4-benzylpiperazin-1-yl)pyridin-2-yl)-2-(1,3-dimethyl-2,6-dioxo-2,3-dihydro-1H-purin-7(6H)-yl)acetamide]", "values": [{"measurement": "IC50", "setting": "HEK293-STF3A cells", "result": "< 100", "unit": "nM"}]}, {"smiles": "CC(C(=O)Nc1ccc(-c2ccsc2)cc1)n1cnc2c1c(=O)n(C)c(=O)n2C", "note": "(stereo not shown) [Compound 61, 2-(1,3-dimethyl-2,6-dioxo-2,3-dihydro-1H-purin-7(6H)-yl)-N-(4-(thiophen-3-yl)phenyl)propanamide]", "values": [{"measurement": "IC50", "setting": "HEK293-STF3A cells", "result": "< 100", "unit": "nM"}]}, {"smiles": "Cn1c(=O)c2c(ncn2CCC(=O)Nc2ccc(-c3cccs3)cc2)n(C)c1=O", "note": "[Compound 90, 3-(1,3-dimethyl-2,6-dioxo-1,2,3,6-tetrahydro-7H-purin-7-yl)-N-(4-(thiophen-2-yl)phenyl)propanamide]", "values": [{"measurement": "IC50", "setting": "HEK293-STF3A cells", "result": "< 100", "unit": "nM"}]}, {"smiles": "Cn1c(=O)c2c(nc(C3CC3)n2CC(=O)Nc2ccc(-c3ccsc3)cc2)n(C)c1=O", "note": "[Compound 68, 2-(8-cyclopropyl-1,3-dimethyl-2,6-dioxo-2,3-dihydro-1H-purin-7(6H)-yl)-N-(4-(thiophen-3-yl)phenyl)acetamide]", "values": [{"measurement": "IC50", "setting": "HEK293-STF3A cells", "result": "< 100", "unit": "nM"}]}, {"smiles": "Cn1c(=O)c2c(ncn2CC(=O)Nc2ccc(N3CCN(Cc4cccc(Cl)c4)CC3)cn2)n(C)c1=O", "note": "[Compound 21, N-(5-(4-(3-chlorobenzyl)piperazin-1-yl)pyridin-2-yl)-2-(1,3-dimethyl-2,6-dioxo-2,3-dihydro-1H-purin-7(6H)-yl)acetamide]", "values": [{"measurement": "IC50", "setting": "HEK293-STF3A cells", "result": "< 100", "unit": "nM"}]}, {"smiles": "C[C@@H]1CNCCN1c1ccc(NC(=O)Cn2cnc3c2c(=O)n(C)c(=O)n3C)cc1", "note": "[Compound 44, (R)-2-(1,3-dimethyl-2,6-dioxo-2,3-dihydro-1H-purin-7(6H)-yl)-N-(4-(2-methylpiperazin-1-yl)phenyl)acetamide]", "values": [{"measurement": "IC50", "setting": "HEK293-STF3A cells", "result": "> 10000", "unit": "nM"}]}]}
